Measured values from article PMC9863556, “Influence of Green Synthesized Zinc Oxide Nanoparticles on Molecular Interaction and Comparative Binding of Azure Dye with Chymotrypsin: Novel Nano-Conjugate for Cancer Phototherapy” (Pharmaceutics, 2022).

Molecular target: α-chymotrypsin (α-Chymo) (Bos taurus, UniProt P00766)
Assay: UV-Visible titration (Benesi-Hildebrand binding constant), supported by tryptophan fluorescence quenching (Ksv […] at […] K, static) and CD

CNc1ccc2nc3ccc(N)cc3[s+]c2c1 [AzC, AzureC]
Kd: 17.5 µM
